Measured values reported in ChEMBL document CHEMBL5463728, “Data for DCP probe BAY-6096” (2023).

Key:
[1] = target: Kappa-type opioid receptor (Homo sapiens) (UniProt P41145); conditions: Compound concentration 10.0 uM
[2] = target: Histamine H3 receptor (Homo sapiens) (UniProt Q9Y5N1); conditions: Compound concentration 10.0 uM
[3] = target: Sodium-dependent serotonin transporter (Homo sapiens) (UniProt P31645); conditions: Compound concentration 10.0 uM
[4] = target: Muscarinic acetylcholine receptor M3 (Homo sapiens) (UniProt P20309); conditions: Compound concentration 10.0 uM
[5] = target: Alpha-2C adrenergic receptor (Homo sapiens, UniProt P18825); test: Adrenoceptor reporter cell assay (ADRA2C); type: functional
[6] = target: Estrogen receptor (Homo sapiens) (UniProt P03372); conditions: Compound concentration 10.0 uM
[7] = target: Insulin receptor (Homo sapiens) (UniProt P06213); conditions: Rattus norvegicus; Compound concentration 10.0 uM
[8] = target: Alpha-1B adrenergic receptor (Homo sapiens) (UniProt P35368); conditions: Compound concentration 10.0 uM
Chain of Alpha-1B adrenergic receptor (Homo sapiens) (P35368 whole entry): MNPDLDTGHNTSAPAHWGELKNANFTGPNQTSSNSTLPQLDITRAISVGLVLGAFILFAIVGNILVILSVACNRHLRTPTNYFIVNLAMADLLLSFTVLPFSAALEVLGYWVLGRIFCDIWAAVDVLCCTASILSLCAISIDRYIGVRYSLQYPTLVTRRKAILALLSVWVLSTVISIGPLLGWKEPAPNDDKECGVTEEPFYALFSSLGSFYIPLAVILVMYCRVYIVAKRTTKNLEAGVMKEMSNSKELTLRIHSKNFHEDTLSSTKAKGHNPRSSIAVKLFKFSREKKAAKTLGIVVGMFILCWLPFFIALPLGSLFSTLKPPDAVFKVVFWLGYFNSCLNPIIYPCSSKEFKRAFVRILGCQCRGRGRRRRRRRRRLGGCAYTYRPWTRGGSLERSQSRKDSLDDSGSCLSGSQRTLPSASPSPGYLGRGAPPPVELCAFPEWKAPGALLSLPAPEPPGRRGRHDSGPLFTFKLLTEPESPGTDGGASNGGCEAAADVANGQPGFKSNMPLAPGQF

[9] = target: Alpha-1A adrenergic receptor (Homo sapiens, UniProt P35348); test: Adrenoceptor reporter cell assay (ADRA1A); type: functional
[10] = target: 5-hydroxytryptamine receptor 2A (Homo sapiens) (UniProt P28223); conditions: Compound concentration 10.0 uM
[11] = target: Nitric oxide synthase, inducible (Homo sapiens) (UniProt P35228); test: Inhibition of Nitric Oxide Synthase, Inducible (iNOS) at compound concentration of 10.0 uM in the Eurofins-Panlabs enzyme assay (Eurofins_assay_199010); set-up: substrate with concentration; conditions: Mus musculus; Compound concentration 10.0 uM
[12] = target: Histamine H1 receptor (Homo sapiens) (UniProt P35367); conditions: Compound concentration 10.0 uM
Chain of Histamine H1 receptor (Homo sapiens) (P35367 whole entry): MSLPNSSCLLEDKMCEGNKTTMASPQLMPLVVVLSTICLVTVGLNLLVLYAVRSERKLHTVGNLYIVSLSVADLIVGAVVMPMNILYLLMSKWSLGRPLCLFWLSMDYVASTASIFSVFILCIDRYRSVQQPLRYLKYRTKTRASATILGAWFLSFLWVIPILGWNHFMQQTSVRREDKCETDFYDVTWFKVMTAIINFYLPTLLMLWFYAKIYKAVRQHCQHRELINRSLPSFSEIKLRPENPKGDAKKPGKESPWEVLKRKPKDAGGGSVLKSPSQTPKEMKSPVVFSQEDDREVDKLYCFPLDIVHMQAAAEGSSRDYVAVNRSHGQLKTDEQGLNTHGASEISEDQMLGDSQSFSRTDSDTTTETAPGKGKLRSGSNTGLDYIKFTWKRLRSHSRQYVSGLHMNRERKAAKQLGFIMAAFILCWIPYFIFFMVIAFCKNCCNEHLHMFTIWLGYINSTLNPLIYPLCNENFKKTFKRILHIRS

[13] = target: Adenosine receptor A3 (Homo sapiens) (UniProt P0DMS8); conditions: Compound concentration 10.0 uM
[14] = organism: Homo sapiens; test: Inhibition of Nicotinic Acetylcholine at compound concentration of 10.0 uM in the Eurofins-Panlabs radioligand binding assay (Eurofins_assay_258590); type: protein-complex assay; conditions: Compound concentration 10.0 uM
[15] = target: Histamine H4 receptor (Homo sapiens) (UniProt Q9H3N8); conditions: Compound concentration 10.0 uM
Chain of Histamine H4 receptor (Homo sapiens) (Q9H3N8 whole entry): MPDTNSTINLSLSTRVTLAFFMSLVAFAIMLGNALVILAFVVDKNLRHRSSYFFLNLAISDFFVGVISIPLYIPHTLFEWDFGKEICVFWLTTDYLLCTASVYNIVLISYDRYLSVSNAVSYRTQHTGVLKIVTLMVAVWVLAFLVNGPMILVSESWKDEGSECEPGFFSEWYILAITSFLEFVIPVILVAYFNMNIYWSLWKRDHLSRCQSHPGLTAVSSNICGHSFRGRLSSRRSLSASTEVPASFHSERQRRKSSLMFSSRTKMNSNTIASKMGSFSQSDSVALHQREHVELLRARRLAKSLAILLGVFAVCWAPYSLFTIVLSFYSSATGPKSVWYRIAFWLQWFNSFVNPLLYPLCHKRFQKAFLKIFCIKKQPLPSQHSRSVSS

[16] = target: D(3) dopamine receptor (Homo sapiens) (UniProt P35462); conditions: Compound concentration 10.0 uM
Chain of D(3) dopamine receptor (Homo sapiens) (P35462 whole entry): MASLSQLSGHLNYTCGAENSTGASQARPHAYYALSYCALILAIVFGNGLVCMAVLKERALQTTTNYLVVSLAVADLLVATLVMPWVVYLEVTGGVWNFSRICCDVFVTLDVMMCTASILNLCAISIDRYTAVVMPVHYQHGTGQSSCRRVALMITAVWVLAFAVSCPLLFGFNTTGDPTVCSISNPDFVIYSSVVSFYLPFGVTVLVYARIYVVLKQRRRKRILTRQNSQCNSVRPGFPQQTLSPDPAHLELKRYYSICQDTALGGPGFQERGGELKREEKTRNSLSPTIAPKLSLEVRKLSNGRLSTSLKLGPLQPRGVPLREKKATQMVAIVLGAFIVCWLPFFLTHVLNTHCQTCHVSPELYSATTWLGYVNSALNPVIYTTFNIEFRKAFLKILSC

[17] = target: Beta-2 adrenergic receptor (Homo sapiens, UniProt P07550); test: Adrenoceptor reporter cell assay (ADRB2); type: functional
[18] = target: Sodium-dependent noradrenaline transporter (Homo sapiens) (UniProt P23975); conditions: Compound concentration 10.0 uM
[19] = target: B1 bradykinin receptor (Homo sapiens) (UniProt P46663); conditions: Compound concentration 10.0 uM
[20] = target: Acetylcholinesterase (Homo sapiens) (UniProt P22303); conditions: Compound concentration 10.0 uM
[21] = target: Mu-type opioid receptor (Homo sapiens) (UniProt P35372); conditions: Compound concentration 10.0 uM
[22] = target: Adenosine Transporter (Cavia porcellus) (UniProt H0V4R7+H0UUG1+H0V3Z5); test: Inhibition of Transporter, Adenosine at compound concentration of 10.0 uM in the Eurofins-Panlabs radioligand binding assay (Eurofins_assay_202000); type: protein assay; set-up: ligand concentration 0.5 nM, non-specific ligand with concentration 5 uM Nitrobenzylthioinosine, incubation time 30 min, incubation temperature 25 C; conditions: Compound concentration 10.0 uM
[23] = target: 3',5'-cyclic-AMP phosphodiesterase 4D (Homo sapiens) (UniProt Q08499); test: Inhibition of Phosphodiesterase PDE4D2 at 10 µM in the Eurofins-Panlabs enzyme assay (Eurofins_assay_154420); set-up: substrate with concentration; conditions: Compound concentration 10.0 uM
[24] = target: Cannabinoid receptor 2 (Homo sapiens) (UniProt P34972); conditions: Compound concentration 10.0 uM
[25] = target: Carbonic anhydrase 2 (Homo sapiens) (UniProt P00918); test: Inhibition of Carbonic Anhydrase II at compound concentration of 10.0 uM in the Eurofins-Panlabs enzyme assay (Eurofins_assay_112020); set-up: substrate with concentration; conditions: Compound concentration 10.0 uM
[26] = target: 5-hydroxytryptamine receptor 1B (Homo sapiens) (UniProt P28222); conditions: Compound concentration 10.0 uM
Chain of 5-hydroxytryptamine receptor 1B (Homo sapiens) (P28222 whole entry): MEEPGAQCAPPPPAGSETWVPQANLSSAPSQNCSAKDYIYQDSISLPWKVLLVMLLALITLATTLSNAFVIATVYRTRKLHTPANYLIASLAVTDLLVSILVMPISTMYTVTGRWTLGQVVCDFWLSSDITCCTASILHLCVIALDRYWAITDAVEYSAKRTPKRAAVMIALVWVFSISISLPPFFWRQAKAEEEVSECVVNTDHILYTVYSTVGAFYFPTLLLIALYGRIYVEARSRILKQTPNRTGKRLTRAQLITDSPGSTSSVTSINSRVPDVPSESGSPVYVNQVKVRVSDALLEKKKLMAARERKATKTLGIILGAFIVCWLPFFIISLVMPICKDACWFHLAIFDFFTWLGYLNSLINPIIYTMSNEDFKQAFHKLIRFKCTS

[27] = target: Aldo-keto reductase family 1 member B1 (Rattus norvegicus) (UniProt P07943); test: Inhibition of Aldose Reductase at compound concentration of 10.0 uM in the Eurofins-Panlabs enzyme assay (Eurofins_assay_107000); set-up: substrate with concentration; conditions: Compound concentration 10.0 uM
[28] = organism: Sus scrofa; test: Inhibition of ATPase, Na+/K+, Heart at compound concentration of 10.0 uM in the Eurofins-Panlabs enzyme assay (Eurofins_assay_107710); set-up: substrate with concentration; conditions: Compound concentration 10.0 uM
[29] = target: T1, D(2) dopamine receptor (Homo sapiens, UniProt P14416); test: Bayer Inhouse […] panel (DRD2)
T1 sequence (P14416 whole entry): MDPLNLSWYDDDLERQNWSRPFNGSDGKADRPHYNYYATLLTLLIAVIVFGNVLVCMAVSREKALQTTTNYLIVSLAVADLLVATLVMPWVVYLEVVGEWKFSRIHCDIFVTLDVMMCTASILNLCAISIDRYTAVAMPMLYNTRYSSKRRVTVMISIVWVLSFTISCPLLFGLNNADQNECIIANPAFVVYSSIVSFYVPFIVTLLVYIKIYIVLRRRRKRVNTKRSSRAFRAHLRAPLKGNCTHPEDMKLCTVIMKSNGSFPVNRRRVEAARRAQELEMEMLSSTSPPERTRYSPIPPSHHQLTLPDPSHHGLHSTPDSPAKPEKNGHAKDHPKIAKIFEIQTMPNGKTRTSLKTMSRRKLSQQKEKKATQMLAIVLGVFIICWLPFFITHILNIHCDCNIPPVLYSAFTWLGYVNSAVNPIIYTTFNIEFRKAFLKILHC

[30] = target: T1, D(2) dopamine receptor; conditions: Compound concentration 10.0 uM
[31] = target: Alpha-1B adrenergic receptor (Homo sapiens, UniProt P35368); test: Adrenoceptor reporter cell assay (ADRA1B); type: functional
Chain of Alpha-1B adrenergic receptor (P35368 whole entry): as the sequence (P35368 whole entry) above

[32] = target: Thromboxane-A synthase (Homo sapiens) (UniProt P24557); test: Inhibition of Thromboxane Synthase at compound concentration of 10.0 uM in the Eurofins-Panlabs enzyme assay (Eurofins_assay_194020); set-up: substrate with concentration; conditions: Compound concentration 10.0 uM
[33] = target: 5-hydroxytryptamine receptor 7 (Homo sapiens) (UniProt P34969); conditions: Compound concentration 10.0 uM
Chain of 5-hydroxytryptamine receptor 7 (Homo sapiens) (P34969 whole entry): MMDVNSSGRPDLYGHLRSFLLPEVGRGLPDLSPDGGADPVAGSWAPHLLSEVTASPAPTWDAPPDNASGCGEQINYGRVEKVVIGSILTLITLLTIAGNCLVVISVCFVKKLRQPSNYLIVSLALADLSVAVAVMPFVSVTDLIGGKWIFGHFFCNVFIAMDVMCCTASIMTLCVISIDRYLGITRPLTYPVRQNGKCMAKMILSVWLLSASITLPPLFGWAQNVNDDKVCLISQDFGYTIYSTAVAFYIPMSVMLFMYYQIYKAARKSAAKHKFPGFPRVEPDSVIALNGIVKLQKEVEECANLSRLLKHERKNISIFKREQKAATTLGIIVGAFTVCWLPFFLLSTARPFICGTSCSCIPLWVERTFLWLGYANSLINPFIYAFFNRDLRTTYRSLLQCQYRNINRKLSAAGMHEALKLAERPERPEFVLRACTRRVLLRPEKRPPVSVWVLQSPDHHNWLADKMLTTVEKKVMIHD

[34] = target: Sigma intracellular receptor 2 (Homo sapiens) (UniProt Q5BJF2); conditions: Compound concentration 10.0 uM
Chain of Sigma intracellular receptor 2 (Homo sapiens) (Q5BJF2 whole entry): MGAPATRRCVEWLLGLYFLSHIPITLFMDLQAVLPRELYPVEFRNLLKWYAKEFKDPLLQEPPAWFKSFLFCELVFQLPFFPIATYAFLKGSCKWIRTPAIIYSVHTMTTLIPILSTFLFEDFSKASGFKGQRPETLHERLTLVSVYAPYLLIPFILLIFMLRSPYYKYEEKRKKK

[35] = target: T2, 5-hydroxytryptamine receptor 1A (Homo sapiens) (UniProt P08908); conditions: Compound concentration 10.0 uM
T2 sequence (whole entry): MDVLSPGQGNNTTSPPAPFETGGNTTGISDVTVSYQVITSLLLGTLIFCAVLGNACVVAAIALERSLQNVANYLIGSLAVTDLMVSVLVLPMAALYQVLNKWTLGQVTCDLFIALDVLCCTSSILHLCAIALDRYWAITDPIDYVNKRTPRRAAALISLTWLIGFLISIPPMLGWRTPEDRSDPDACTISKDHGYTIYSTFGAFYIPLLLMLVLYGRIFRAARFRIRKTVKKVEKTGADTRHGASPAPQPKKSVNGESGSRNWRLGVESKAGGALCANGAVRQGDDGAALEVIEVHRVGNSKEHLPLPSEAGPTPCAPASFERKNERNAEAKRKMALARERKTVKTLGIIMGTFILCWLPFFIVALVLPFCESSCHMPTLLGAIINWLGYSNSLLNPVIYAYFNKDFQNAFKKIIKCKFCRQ

[36] = target: D(1B) dopamine receptor (Homo sapiens) (UniProt P21918); conditions: Compound concentration 10.0 uM
Chain of D(1B) dopamine receptor (Homo sapiens) (P21918 whole entry): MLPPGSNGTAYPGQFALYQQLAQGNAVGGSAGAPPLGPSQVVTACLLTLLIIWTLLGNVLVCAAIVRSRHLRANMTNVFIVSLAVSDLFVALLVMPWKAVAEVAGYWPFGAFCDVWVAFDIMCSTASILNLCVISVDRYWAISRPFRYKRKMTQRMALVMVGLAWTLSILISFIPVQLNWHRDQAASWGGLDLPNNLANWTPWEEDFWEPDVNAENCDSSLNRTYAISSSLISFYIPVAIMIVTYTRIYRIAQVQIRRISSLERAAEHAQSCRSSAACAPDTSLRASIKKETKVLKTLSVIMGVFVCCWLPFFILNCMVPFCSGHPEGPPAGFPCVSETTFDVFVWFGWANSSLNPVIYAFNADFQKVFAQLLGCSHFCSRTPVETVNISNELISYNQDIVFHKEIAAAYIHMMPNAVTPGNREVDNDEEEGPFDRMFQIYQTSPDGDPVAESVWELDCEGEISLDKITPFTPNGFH

Chain of Sodium-dependent serotonin transporter (Homo sapiens) (P31645 whole entry, looked up): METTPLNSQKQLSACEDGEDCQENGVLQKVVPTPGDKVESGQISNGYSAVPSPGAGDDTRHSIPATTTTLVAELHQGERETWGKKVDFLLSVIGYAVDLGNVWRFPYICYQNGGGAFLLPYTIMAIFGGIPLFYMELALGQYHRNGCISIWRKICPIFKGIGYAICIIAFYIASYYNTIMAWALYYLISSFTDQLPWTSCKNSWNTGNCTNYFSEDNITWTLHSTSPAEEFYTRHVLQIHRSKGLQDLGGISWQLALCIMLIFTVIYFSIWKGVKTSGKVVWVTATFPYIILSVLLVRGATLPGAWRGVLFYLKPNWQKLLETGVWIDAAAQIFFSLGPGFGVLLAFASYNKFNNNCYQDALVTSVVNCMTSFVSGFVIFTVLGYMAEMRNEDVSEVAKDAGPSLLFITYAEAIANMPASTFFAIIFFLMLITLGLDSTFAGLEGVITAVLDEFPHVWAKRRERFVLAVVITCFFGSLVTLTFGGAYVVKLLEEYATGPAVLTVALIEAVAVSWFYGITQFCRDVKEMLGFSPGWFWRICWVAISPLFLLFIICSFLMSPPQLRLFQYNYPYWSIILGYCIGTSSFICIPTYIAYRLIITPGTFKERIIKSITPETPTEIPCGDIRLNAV
Chain of Kappa-type opioid receptor (Homo sapiens) (P41145 whole entry): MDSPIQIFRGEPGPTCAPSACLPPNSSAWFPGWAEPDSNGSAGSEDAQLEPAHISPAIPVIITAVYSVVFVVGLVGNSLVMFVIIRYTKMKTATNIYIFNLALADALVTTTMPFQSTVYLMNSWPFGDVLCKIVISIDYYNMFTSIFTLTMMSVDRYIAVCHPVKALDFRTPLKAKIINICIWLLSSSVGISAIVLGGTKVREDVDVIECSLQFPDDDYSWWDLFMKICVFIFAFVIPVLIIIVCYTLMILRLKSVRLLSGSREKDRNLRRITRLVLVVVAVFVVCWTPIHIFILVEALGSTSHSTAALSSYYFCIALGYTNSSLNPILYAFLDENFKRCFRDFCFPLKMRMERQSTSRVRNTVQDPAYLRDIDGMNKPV

Work on `CNc1cc[n+](CCNC(=O)c2ccn3c(-c4c(C)noc4C)cnc3c2)cc1` yielded an inhibition [1] of 32.3%, an inhibition [2] of 1.6% and an inhibition [3] of 7.14%. For the same compound, the inhibition [4] was -0.2%, the IC50 [5] was > 11.8 µM (not active) and the inhibition [6] was 6.2%. For the same compound, the inhibition [7] was -3.4%, the inhibition [8] was 0.79% and the IC50 [9] was 5.52 µM (not active). It also gave an inhibition [10] of 1%, an inhibition [11] of 6.3% and an inhibition [12] of 1.15%. It also gave an inhibition [13] of 1.1%, an inhibition [14] of 9.4% and an inhibition [15] of 3.02%. For the same compound, the inhibition [16] was 8.88%, the IC50 [17] was > 10 µM (not active) and the inhibition [18] was 2.7%. It also gave an inhibition [19] of -0.9%, an inhibition [20] of 14.8% and an inhibition [21] of 0.1%. For the same compound, the inhibition [22] was -2.2%, the inhibition [23] was -0.5% and the inhibition [24] was -3.8%. It also gave an inhibition [25] of 3%, an inhibition [26] of 9.81% and an inhibition [27] of -1.7%. For the same compound, the inhibition [28] was -2.1%, the IC50 [29] was 1.4 µM (not active) and the inhibition [30] was 10.6%. For the same compound, the IC50 [31] was > 10 µM (not active), the inhibition [32] was -8.2% and the inhibition [33] was 5.99%. It also gave an inhibition [34] of 27.5% and an inhibition [35] of 33.4%.
With `Cc1noc(C)c1-c1cnc2cc(C(=O)NCCC[n+]3ccc(N(C)C)cc3)ccn12` the inhibition [1] was 28.2%, the inhibition [3] was 1.28% and the IC50 [5] was > 10 µM (not active). For the same compound, the inhibition [8] was 1.7%, the IC50 [9] was > 10 µM (not active) and the inhibition [12] was 2.11%. For the same compound, the inhibition [15] was 15.9%, the inhibition [16] was -6.53% and the inhibition [36] was 0.03%. The inhibition [26] was -0.88%, the IC50 [29] was > 20 µM (not active) and the inhibition [30] was -1.11%. It also gave an inhibition [33] of 3.4%, an inhibition [34] of 14.1% and an inhibition [35] of 81.7%.
